These antisense oligonucleotides have a phosphorothioate backbone; sugars and methylation of C are not fully specified.
Further: test concentration or dose not given here.

The data set has as its target GNA13. Particulars: ASO.
On to AATATTTTACAGATTCAC, for which the remaining target (mRNA or protein) (fraction of control) was at least 1.

Sequence AATTCTGGTTGTAAACTG came in with a remaining target (mRNA or protein) (fraction of control) of at least 1.

Sequence ACCCAGTTGAAATTCTCG returned a remaining target (mRNA or protein) (fraction of control) of 0.43.

In turn, ACCCTCATACCTTTGATC yielded a remaining target (mRNA or protein) (fraction of control) of 0.09.

ACGACATCATCTTATCTC: the remaining target (mRNA or protein) (fraction of control) is 0.39.

ACTAAGATTTTCAAGAAG returned a remaining target (mRNA or protein) (fraction of control) of 0.61.

Consider ACTCGTCAGCAGGCAGCC, for which the remaining target (mRNA or protein) (fraction of control) is at least 1.

In turn, AGAACAGAATTATGGAGA had a remaining target (mRNA or protein) (fraction of control) of 0.31.

The sequence AGCACACGGACAGCACGG yielded a remaining target (mRNA or protein) (fraction of control) of 0.51.

As to AGCAGCAGGATCTTCACC, the remaining target (mRNA or protein) (fraction of control) came to 0.54.

In turn, AGTCCGCCATCTTGCCGC came in with a remaining target (mRNA or protein) (fraction of control) of at least 1.

AGTGGTGAAGTGGTGGTA showed a remaining target (mRNA or protein) (fraction of control) of 0.43.

In the case of ATATGAAGCTTCTCTCGA, the remaining target (mRNA or protein) (fraction of control) is 0.42.

Regarding ATATTGTAAGAAAACCCT, the remaining target (mRNA or protein) (fraction of control) is at least 1.

In turn, ATGTTCTCCGTGTTGATA gave a remaining target (mRNA or protein) (fraction of control) of 0.67.

Turning to CAAATCTTGGCGATGAGT, the remaining target (mRNA or protein) (fraction of control) turned out to be 0.31.

In turn, CAATTTGCACCTTCTCCT showed a remaining target (mRNA or protein) (fraction of control) of 0.29.

CACACGGACAGCACGGAC had a remaining target (mRNA or protein) (fraction of control) of 0.77.

Turning to CACTTGAGGAAACAAGGA, the remaining target (mRNA or protein) (fraction of control) turned out to be 0.38.

For the sequence CAGCTTTCAGCCACAAAC, the remaining target (mRNA or protein) (fraction of control) came to 0.99.

As to CATAAGCACCTGGTCAAA, the remaining target (mRNA or protein) (fraction of control) was found to be 0.1.

The sequence CATAGGTCTTTTCCCGAG returned a remaining target (mRNA or protein) (fraction of control) of 0.52.

Sequence CATCTGCTTCAGGAAGGT displayed a remaining target (mRNA or protein) (fraction of control) of 0.55.

CATCTTGCCGCCGCCGCC had a remaining target (mRNA or protein) (fraction of control) of 0.99.

Consider CCCGTGGATGATCCGCAT, for which the remaining target (mRNA or protein) (fraction of control) is at least 1.

For the sequence CCGCCGCCTCGCCGCCTC, the remaining target (mRNA or protein) (fraction of control) was found to be 0.33.

CCGCTGTCTGCCCATAAT: the remaining target (mRNA or protein) (fraction of control) worked out at 0.08.

The sequence CCTTGTTTCCACCATTCC gave a remaining target (mRNA or protein) (fraction of control) of 0.07.

On to CGAGACAGGCATTTGTCG, for which the remaining target (mRNA or protein) (fraction of control) was at least 1.

For the sequence CGATTGGTCAGTCGATCT, the remaining target (mRNA or protein) (fraction of control) was at least 1.

For the sequence CGCCTCGCCGCCTCTCCG, the remaining target (mRNA or protein) (fraction of control) was found to be 0.75.

Regarding CGCGCCCAGCAGCAGGAT, the remaining target (mRNA or protein) (fraction of control) amounted to 0.75.

Sequence CGGACCGCGACGGCAGGA returned a remaining target (mRNA or protein) (fraction of control) of 0.58.

With CGGTCATAGGCATTCTGT, the remaining target (mRNA or protein) (fraction of control) was found to be 0.66.

In the case of CGTAGAATTAAGATTGTT, the remaining target (mRNA or protein) (fraction of control) is at least 1.

CGTTTGTTCCGGAAACAT gave a remaining target (mRNA or protein) (fraction of control) of 0.76.

The sequence CTCCATGTTGTTGGTTTG gave a remaining target (mRNA or protein) (fraction of control) of 0.46.

For the sequence CTTGCGTTGCTGCTCGGC, the remaining target (mRNA or protein) (fraction of control) came to 0.36.

For CTTTTCCCGAGACAGGCA, the remaining target (mRNA or protein) (fraction of control) amounted to 0.08.

GAAAACCCTTGTTTCCAC displayed a remaining target (mRNA or protein) (fraction of control) of 0.33.

GAAATAGTCTTTGATGCT registered a remaining target (mRNA or protein) (fraction of control) of 0.61.

Sequence GACAGGCATTTGTCGATC came in with a remaining target (mRNA or protein) (fraction of control) of at least 1.

GACCGCGACGGCAGGAAG yielded a remaining target (mRNA or protein) (fraction of control) of at least 1.

Turning to GAGCATCAACCAGCACCC, the remaining target (mRNA or protein) (fraction of control) turned out to be 0.11.

Regarding GATCTCCTTGGACTTGCG, the remaining target (mRNA or protein) (fraction of control) stood at 0.33.

The sequence GCAAGCAGAATATCTTGT had a remaining target (mRNA or protein) (fraction of control) of 0.5.

GCCCGGGTATCAAACGAC had a remaining target (mRNA or protein) (fraction of control) of 0.26.

The values are drawn from the OligoGym collection.
